Laboratory results as given in patent US20240246945A1, “NOVEL COMPOUND FOR CROP PROTECTANT” (LG CHEM, LTD., priority 2010, published 2024).

test system: Myzus persicae (Sulzer); experiment: Insecticidal Activity Test 1 against Myzus persicae (Sulzer), foliar spray on potted peppers, approximately 5 ppm; type: in vivo; details: in Capsicum, 120 h, approximately 5 ppm drug solution in water, counted on day 5 after spraying, read-out: mortality rate rating
From the text: Insecticidal Activity Test 1 Against Myzus persicae (Sulzer)
(§1) Peppers were planted in plastic pots with a diameter of 8 cm and a height of 8 cm, Myzus persicae (Sulzer) was reproduced therein, and then the number of Myzus persicae (Sulzer) in each pot was investigated. Some of the compounds prepared in the examples were selected, the compound was dispersed in water to be diluted to approximately 5 ppm, thereby preparing a drug solution.
The drug solution was sprayed onto the foliage of the peppers planted in the pots using a hand sprayer and air-dried, and the pots were stored in a green house.
(§2) On day 5 after the drug spraying, the number of Myzus persicae (Sulzer) parasitic on each pepper was counted, a mortality rate was calculated from the following formula, and the rating of each compound was investigated.
(§3) [formula] • A rating: 90% to 100% mortality • B rating: 80% or more and less than 90% mortality • C rating: less than 80% mortality

| SMILES | mortality at 5 µg/mL [%] |
| --- | --- |
| CCSc1ccccc1-c1nc(-c2ncc(C(=O)N(CC)c3cccnc3)n2C)no1 [Ia-1-1-43, N-ethyl-2-(5-(2-(ethylthio)phenyl)-1,2,4-oxadiazol-3-yl)-1-methyl-N-(pyridin-3-yl)-1H-imidazole-5-carboxamide] | 90 to 100 |
| CCN(C(=O)c1cnc(-c2nnc(C3CC3)o2)n1C)c1cccnc1 [Ia-1-3-2, 2-(5-cyclopropyl-1,3,4-oxadiazol-2-yl)-N-ethyl-1-methyl-N-(pyridin-3-yl)-1H-imidazole-5-carboxamide] | 90 to 100 |
| CCN(C(=O)c1cnc(-c2nnc(C)o2)n1C)c1cccnc1 [Ia-1-3-3, N-ethyl-1-methyl-2-(5-methyl-1,3,4-oxadiazol-2-yl)-N-(pyridin-3-yl)-1H-imidazole-5-carboxamide] | 90 to 100 |
| CCN(C(=O)c1cnc(C2=NOC(C)(C)N2C)n1C)c1cccnc1 [Ia-1-4-2, N-ethyl-1-methyl-N-(pyridin-3-yl)-2-(4,5,5-trimethyl-4,5-dihydro-1,2,4-oxadiazol-3-yl)-1H-imidazole-5-carboxamide] | 90 to 100 |
| CCN(C(=O)c1cnc(C2=NOC3(CCSCC3)N2C)n1C)c1cccnc1 [Ia-1-4-22, N-ethyl-1-methyl-2-(4-methyl-1-oxa-8-thia-2,4-diazaspiro[4.5]dec-2-en-3-yl)-N-(pyridin-3-yl)-1H-imidazole-5-carboxamide] | 90 to 100 |
| CCN(C(=O)c1cnc(C2=NOC(C3CC3)N2)n1C)c1cccnc1 (centres unmarked) [Ia-1-4-41, 2-(5-cyclopropyl-4,5-dihydro-1,2,4-oxadiazol-3-yl)-N-ethyl-1-methyl-N-(pyridin-3-yl)-1H-imidazole-5-carboxamide] | 90 to 100 |
| CCN(C(=O)c1cnc(C2=NOC(C)N2)n1C)c1cccnc1 (centres unmarked) [Ia-1-4-43, N-ethyl-1-methyl-2-(5-methyl-4,5-dihydro-1,2,4-oxadiazol-3-yl)-N-(pyridin-3-yl)-1H-imidazole-5-carboxamide] | 90 to 100 |
| CCC1NC(c2ncc(C(=O)N(CC)c3cccnc3)n2C)=NO1 (centres unmarked) [Ia-1-4-44, N-ethyl-2-(5-ethyl-4,5-dihydro-1,2,4-oxadiazol-3-yl)-1-methyl-N-(pyridin-3-yl)-1H-imidazole-5-carboxamide] | 90 to 100 |
| CCN(C(=O)c1cnc(C2=NC3(CCOCC3)ON2C)n1C)c1cccnc1 [Ia-1-5-2, N-ethyl-1-methyl-2-(2-methyl-1,8-dioxa-2,4-diazaspiro[4.5]dec-3-en-3-yl)-N-(pyridin-3-yl)-1H-imidazole-5-carboxamide] | 90 to 100 |
| CCN(C(=O)c1cnc(C2=NC3(CCC(C(F)(F)F)CC3)ON2C)n1C)c1cccnc1 (centres unmarked) [Ia-1-5-6, N-ethyl-1-methyl-2-(2-methyl-8-(trifluoromethyl)-1-oxa-2,4-diazaspiro[4.5]dec-3-en-3-yl)-N-(pyridin-3-yl)-1H-imidazole-5-carboxamide] | 90 to 100 |

test system: Myzus persicae (Sulzer); experiment: Insecticidal Activity Test 2 against Myzus persicae (Sulzer), foliar spray on potted peppers, approximately 25 ppm; type: in vivo; details: in Capsicum, 120 h, approximately 25 ppm drug solution in water, counted on day 5 after spraying, read-out: mortality rate rating
From the text: Insecticidal Activity Test 2 Against Myzus persicae (Sulzer)
as §1, with “25” for “5”
The drug solution was sprayed onto the foliage of the peppers planted in the pots and air-dried, and the pots were stored in a green house.
as §2, §3

| SMILES | mortality at 25 µg/mL [%] |
| --- | --- |
| CCN(C(=O)c1cnc(C2=NC3(CCOCC3)ON2C)n1C)c1cccnc1 [Ia-1-5-2, N-ethyl-1-methyl-2-(2-methyl-1,8-dioxa-2,4-diazaspiro[4.5]dec-3-en-3-yl)-N-(pyridin-3-yl)-1H-imidazole-5-carboxamide] | 90 to 100 |
